Patent publication US12655185B2, “Peptide inhibitors of interleukin-23 and their use to treat inflammatory diseases” (Protagonist Therapeutics, Inc., priority 2016, dated 2026)
Bridge positions count the residues as written; N and C are the ends. Peptide text beside a SMILES is read from it.

Each compound was assayed against T1, IL-23 binding to IL23R_huFC (human IL-23R) (Homo sapiens, UniProt P29460+Q9NPF7) (assay: IL23-IL23R Competitive Binding ELISA). Settings: not given.
T1 sequence (Q9NPF7 20-189): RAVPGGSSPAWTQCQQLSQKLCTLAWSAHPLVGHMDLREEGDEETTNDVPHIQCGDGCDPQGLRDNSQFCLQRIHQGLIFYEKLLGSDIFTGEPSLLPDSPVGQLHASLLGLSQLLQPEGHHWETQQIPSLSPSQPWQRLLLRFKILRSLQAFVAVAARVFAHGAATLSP
T1 sequence (P29460 23-328): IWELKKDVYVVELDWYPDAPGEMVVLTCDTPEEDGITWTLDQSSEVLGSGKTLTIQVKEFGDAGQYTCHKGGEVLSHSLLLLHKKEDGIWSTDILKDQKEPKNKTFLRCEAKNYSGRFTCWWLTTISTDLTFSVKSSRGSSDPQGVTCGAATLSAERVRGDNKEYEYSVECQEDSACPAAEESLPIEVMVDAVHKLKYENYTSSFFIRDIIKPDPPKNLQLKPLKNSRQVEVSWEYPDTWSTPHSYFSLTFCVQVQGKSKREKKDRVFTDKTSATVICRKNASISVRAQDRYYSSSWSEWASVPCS
Protocol: Immulon® 4HBX plate was coated with 200 ng/well of IL23R_huFC and incubated overnight at 4° C. […] Serial dilutions of test peptides and IL-23 at a final concentration of 0.9 nM diluted in PBS were added to each well and incubated for 2 hours at room temperature. After the wells were washed, bound IL-23 was detected by incubation with 50 ng/well of goat anti-p40 polyclonal antibodies (R&D Systems #AF309) diluted in PBS for 1 hour at room temperature. The wells were again washed four times with PBST. […] The plate was finally washed as above. Signals were visualized with TMB One Component HRP Membrane Substrate, quenched with 2 M sulfuric acid and read spectrophotometrically at 450 nm.

Compound	IC50
CC[C@H](C)[C@@H]1NC(=O)[C@H](CCCCN)NC(=O)[C@H](C)NC(=O)[C@H](CC(N)=O)NC(=O)[C@H](CCCNC(=N)N)NC(=O)[C@H](CCC(N)=O)NC(=O)[C@H](CCC(=O)O)NC(=O)[C@H](CCC(=O)O)NC(=O)[C@H](CC(N)=O)NC(=O)[C@H](CC(C)C)NC(=O)[C@H](CC(N)=O)NC(=O)[C@@H]2CCCN2C(=O)[C@H](CC(=O)O)NC(=O)[C@H](C)NC(=O)[C@H](C)NC(=O)[C@H](C)NC(=O)[C@H](CO)NC(=O)[C@H](Cc2ccc(O)cc2)NC(=O)[C@H](Cc2ccccc2)NC(=O)[C@H](C)NC(=O)[C@H](CC(C)C)NC(=O)[C@H](CCC(N)=O)NC(=O)[C@@H](NC(=O)[C@H](Cc2ccccc2)NC(=O)[C@H](CCSC)NC(=O)[C@H](CC(N)=O)NC(=O)[C@H](Cc2ccccc2)NC(C)=O)CSSC[C@@H](C(N)=O)NC(=O)[C@H](CC(C)C)NC(=O)[C@H](CC(=O)O)NC(=O)[C@H](CCCNC(=N)N)NC(=O)[C@H](Cc2ccccc2)NC(=O)[C@H](CO)NC(=O)[C@H](CCCCN)NC1=O [Peptide 9] (Ac-FNMFCQLAFYSAAADPNLNEEQRNAKIKSFRDLC-NH2; disulfide 5-34)	10 to 100 µM

Same assay, conditions: inhibition of IL-23/IL-23R binding; IL-23 0.9 nM; class symbols; read-out: IC50 IL23R_huFC

IC50	Compound
1 to 10 µM	CC[C@H](C)[C@@H]1NC(=O)[C@H](CCCCN)NC(=O)[C@H](C)NC(=O)[C@H](Cc2c[nH]c3ccccc23)NC(=O)[C@H](CCCNC(=N)N)NC(=O)[C@H](CCC(N)=O)NC(=O)[C@H](CCC(=O)O)NC(=O)[C@H](CCC(N)=O)NC(=O)[C@H](C)NC(=O)[C@H](CC(C)C)NC(=O)[C@H](CC(N)=O)NC(=O)[C@@H]2CCCN2C(=O)[C@H](CC(=O)O)NC(=O)[C@H](C(C)C)NC(=O)CNC(=O)[C@H](C)NC(=O)[C@H](CCC(=O)O)NC(=O)[C@H](CO)NC(=O)[C@H](CCSC)NC(=O)[C@H](CCCNC(=N)N)NC(=O)[C@H](CCCNC(=N)N)NC(=O)[C@H](CC(C)C)NC(=O)[C@@H](NC(=O)[C@H](CCC(N)=O)NC(=O)[C@H](CCSC)NC(=O)[C@H](CC(N)=O)NC(=O)[C@H](Cc2ccccc2)NC(C)=O)CSSC[C@@H](C(N)=O)NC(=O)[C@H](CC(=O)O)NC(=O)[C@H](CC(=O)O)NC(=O)[C@H](CCSC)NC(=O)[C@H]([C@@H](C)CC)NC(=O)[C@H](CO)NC(=O)[C@H](CCCCN)NC1=O [Peptide 17] (Ac-FNMQCLRRMSEAGVDPNLAQEQRWAKIKSIMDDC-NH2; disulfide 5-34)
1 to 10 µM	CC[C@H](C)[C@@H]1NC(=O)[C@H](CCCCN)NC(=O)[C@H](C)NC(=O)[C@H](Cc2c[nH]c3ccccc23)NC(=O)[C@H](C)NC(=O)[C@H](CCC(N)=O)NC(=O)[C@H](CCC(=O)O)NC(=O)[C@H](CCC(N)=O)NC(=O)[C@H](CC(N)=O)NC(=O)[C@H](CC(C)C)NC(=O)[C@H](CC(N)=O)NC(=O)[C@@H]2CCCN2C(=O)[C@H](CC(=O)O)NC(=O)[C@H](C(C)C)NC(=O)CNC(=O)[C@H](C)NC(=O)[C@H](CCC(=O)O)NC(=O)[C@H](CO)NC(=O)[C@H](CCSC)NC(=O)[C@H](CCCNC(=N)N)NC(=O)[C@H](CCCNC(=N)N)NC(=O)[C@H](CC(C)C)NC(=O)[C@@H](NC(=O)[C@H](CCC(N)=O)NC(=O)[C@H](CCSC)NC(=O)[C@H](CC(N)=O)NC(=O)[C@H](Cc2ccccc2)NC(C)=O)CSSC[C@@H](C(N)=O)NC(=O)[C@H](CC(=O)O)NC(=O)[C@H](CC(=O)O)NC(=O)[C@H](CCSC)NC(=O)[C@H]([C@@H](C)CC)NC(=O)[C@H](CO)NC(=O)[C@H](CCCCN)NC1=O [Peptide 19] (Ac-FNMQCLRRMSEAGVDPNLNQEQAWAKIKSIMDDC-NH2; disulfide 5-34)
1 to 10 µM	CC[C@H](C)[C@@H]1NC(=O)[C@H](CCCCN)NC(=O)[C@H](C)NC(=O)[C@H](Cc2c[nH]c3ccccc23)NC(=O)[C@H](CCCNC(=N)N)NC(=O)[C@H](CCC(N)=O)NC(=O)[C@H](CCC(=O)O)NC(=O)[C@H](CCC(N)=O)NC(=O)[C@H](CC(N)=O)NC(=O)[C@H](CC(C)C)NC(=O)[C@H](CC(N)=O)NC(=O)[C@H](C)NC(=O)[C@H](CC(=O)O)NC(=O)[C@H](C(C)C)NC(=O)CNC(=O)[C@H](C)NC(=O)[C@H](CCC(=O)O)NC(=O)[C@H](CO)NC(=O)[C@H](CCSC)NC(=O)[C@H](CCCNC(=N)N)NC(=O)[C@H](CCCNC(=N)N)NC(=O)[C@H](CC(C)C)NC(=O)[C@@H](NC(=O)[C@H](CCC(N)=O)NC(=O)[C@H](CCSC)NC(=O)[C@H](CC(N)=O)NC(=O)[C@H](Cc2ccccc2)NC(C)=O)CSSC[C@@H](C(N)=O)NC(=O)[C@H](CC(=O)O)NC(=O)[C@H](CC(=O)O)NC(=O)[C@H](CCSC)NC(=O)[C@H]([C@@H](C)CC)NC(=O)[C@H](CO)NC(=O)[C@H](CCCCN)NC1=O [Peptide 16] (Ac-FNMQCLRRMSEAGVDANLNQEQRWAKIKSIMDDC-NH2; disulfide 5-34)
1 to 10 µM	CC[C@H](C)[C@@H]1NC(=O)[C@H](CCCCN)NC(=O)[C@H](C)NC(=O)[C@H](C)NC(=O)[C@H](CCCNC(=N)N)NC(=O)[C@H](CCC(N)=O)NC(=O)[C@H](CCC(=O)O)NC(=O)[C@H](CCC(N)=O)NC(=O)[C@H](CC(N)=O)NC(=O)[C@H](CC(C)C)NC(=O)[C@H](CC(N)=O)NC(=O)[C@@H]2CCCN2C(=O)[C@H](CC(=O)O)NC(=O)[C@H](C(C)C)NC(=O)CNC(=O)[C@H](C)NC(=O)[C@H](CCC(=O)O)NC(=O)[C@H](CO)NC(=O)[C@H](CCSC)NC(=O)[C@H](CCCNC(=N)N)NC(=O)[C@H](CCCNC(=N)N)NC(=O)[C@H](CC(C)C)NC(=O)[C@@H](NC(=O)[C@H](CCC(N)=O)NC(=O)[C@H](CCSC)NC(=O)[C@H](CC(N)=O)NC(=O)[C@H](Cc2ccccc2)NC(C)=O)CSSC[C@@H](C(N)=O)NC(=O)[C@H](CC(=O)O)NC(=O)[C@H](CC(=O)O)NC(=O)[C@H](CCSC)NC(=O)[C@H]([C@@H](C)CC)NC(=O)[C@H](CO)NC(=O)[C@H](CCCCN)NC1=O [Peptide 20] (Ac-FNMQCLRRMSEAGVDPNLNQEQRAAKIKSIMDDC-NH2; disulfide 5-34)
10 to 100 µM	CC[C@H](C)[C@@H]1NC(=O)[C@H](CCCNC(=N)N)NC(=O)[C@H](C)NC(=O)[C@H](CC(N)=O)NC(=O)[C@H](CCCNC(=N)N)NC(=O)[C@H](CC(=O)O)NC(=O)[C@H](CCC(=O)O)NC(=O)[C@H](CCC(=O)O)NC(=O)[C@H](CC(N)=O)NC(=O)[C@H](CC(C)C)NC(=O)[C@H](CC(N)=O)NC(=O)[C@@H]2CCCN2C(=O)[C@H](CC(N)=O)NC(=O)[C@H](C)NC(=O)[C@H](C)NC(=O)[C@H](C)NC(=O)[C@H](Cc2c[nH]c3ccccc23)NC(=O)[C@H](Cc2ccc(O)cc2)NC(=O)[C@H](Cc2ccccc2)NC(=O)[C@H](CC(C)C)NC(=O)[C@H](CCCNC(=N)N)NC(=O)[C@H](CCC(N)=O)NC(=O)[C@@H](NC(=O)[C@H](Cc2ccccc2)NC(=O)[C@H](CCSC)NC(=O)[C@H](CC(N)=O)NC(=O)[C@H](Cc2ccccc2)NC(C)=O)CSSC[C@@H](C(N)=O)NC(=O)CNC(=O)[C@H](CC(=O)O)NC(=O)[C@H](CCCNC(=N)N)NC(=O)[C@H](Cc2ccccc2)NC(=O)[C@H](CO)NC(=O)[C@H](CC(C)C)NC1=O [Peptide 3] (Ac-FNMFCQRLFYWAAANPNLNEEDRNARILSFRDGC-NH2; disulfide 5-34)
1 to 10 µM	CC[C@H](C)[C@@H]1NC(=O)[C@H](CO)NC(=O)[C@H](CCCCN)NC(=O)[C@H](C)NC(=O)[C@H](CCCCN)NC(=O)[C@H](C)NC(=O)[C@H](Cc2c[nH]c3ccccc23)NC(=O)[C@H](CCCNC(=N)N)NC(=O)[C@H](CCC(N)=O)NC(=O)[C@H](CCC(=O)O)NC(=O)[C@H](CCC(N)=O)NC(=O)[C@H](CC(N)=O)NC(=O)[C@H](CC(C)C)NC(=O)[C@H](CC(N)=O)NC(=O)[C@@H]2CCCN2C(=O)[C@H](CC(=O)O)NC(=O)[C@H](C(C)C)NC(=O)CNC(=O)[C@H](C)NC(=O)[C@H](CCC(=O)O)NC(=O)[C@H](CO)NC(=O)[C@H](CCSC)NC(=O)[C@H](CCCNC(=N)N)NC(=O)[C@H](CCCNC(=N)N)NC(=O)[C@H](CC(C)C)NC(=O)[C@@H](NC(=O)[C@H](CCC(N)=O)NC(=O)[C@H](CCSC)NC(=O)[C@H](CC(N)=O)NC(=O)[C@H](Cc2ccccc2)NC(C)=O)CSSC[C@@H](C(N)=O)NC(=O)[C@H](CC(=O)O)NC(=O)[C@H](CC(=O)O)NC(=O)[C@H](CCSC)NC1=O [Peptide 21] (Ac-FNMQCLRRMSEAGVDPNLNQEQRWAKAKSIMDDC-NH2; disulfide 5-34)
10 to 100 µM	CC[C@H](C)[C@@H]1NC(=O)CNC(=O)[C@H](C)NC(=O)[C@H](CCC(=O)O)NC(=O)[C@H](C(C)C)NC(=O)[C@H](CCSC)NC(=O)[C@H](CCCNC(=N)N)NC(=O)[C@H](CCCNC(=N)N)NC(=O)[C@H](CC(C)C)NC(=O)[C@@H](NC(=O)[C@H](CCC(N)=O)NC(=O)[C@H](CCSC)NC(=O)[C@H](CC(N)=O)NC(=O)[C@H](Cc2ccccc2)NC(C)=O)CSSC[C@@H](C(N)=O)NC(=O)[C@H](CC(=O)O)NC(=O)[C@H](CC(=O)O)NC(=O)[C@H](Cc2ccccc2)NC(=O)[C@H]([C@@H](C)CC)NC(=O)[C@H](CO)NC(=O)[C@H](CCCNC(=N)N)NC(=O)[C@H]([C@@H](C)CC)NC(=O)[C@H](CCCCN)NC(=O)[C@H](C)NC(=O)[C@H](Cc2c[nH]c3ccccc23)NC(=O)[C@H](CCCNC(=N)N)NC(=O)[C@H](CCC(N)=O)NC(=O)CNC(=O)[C@H](CO)NC(=O)[C@H](CC(N)=O)NC(=O)[C@H](CC(C)C)NC(=O)[C@H](CC(N)=O)NC(=O)[C@@H]2CCCN2C(=O)[C@H](CC(=O)O)NC1=O [Peptide 8] (Ac-FNMQCLRRMVEAGIDPNLNSGQRWAKIRSIFDDC-NH2; disulfide 5-34)
